Test results published in patent US12479821B2 (MBD CO., LTD., priority 2019, dated 2025).
Like-named read-outs stand apart in the source and are kept apart here.

Biological target: T1, CYP4A (Homo sapiens, UniProt Q02928)
T1 construct: host or cells: bactosome, i.e. bacterial membrane preparation (own knowledge of the term)
T1 sequence (Q02928 5-519): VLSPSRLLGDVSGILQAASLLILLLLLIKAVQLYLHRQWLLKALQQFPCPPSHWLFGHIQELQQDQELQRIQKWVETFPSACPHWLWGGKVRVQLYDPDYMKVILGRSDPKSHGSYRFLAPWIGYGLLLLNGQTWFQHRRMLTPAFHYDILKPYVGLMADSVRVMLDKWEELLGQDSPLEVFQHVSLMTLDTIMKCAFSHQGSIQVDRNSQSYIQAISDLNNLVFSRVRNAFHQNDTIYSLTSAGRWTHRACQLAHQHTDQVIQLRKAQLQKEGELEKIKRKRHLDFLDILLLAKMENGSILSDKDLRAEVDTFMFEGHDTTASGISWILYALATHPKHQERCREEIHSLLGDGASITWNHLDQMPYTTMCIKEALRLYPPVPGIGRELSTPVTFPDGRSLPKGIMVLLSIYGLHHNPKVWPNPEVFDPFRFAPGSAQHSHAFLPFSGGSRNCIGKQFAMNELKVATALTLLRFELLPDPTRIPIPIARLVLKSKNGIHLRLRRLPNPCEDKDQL
Experiment: CYP4A enzyme assay (Luciferin-ME luminescence, CYP4A bactosome)
Format: biochemical
Details: compound concentration 5 μM
Method in brief: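 CYP4A bactosome preincubated 15 min at room temperature with compound (5 μM) in 100 mM KPO4, 0.1% BSA, 1 mM DTT. Luciferin-ME (5 mM) plus NADPH regeneration system added, 30 min at room temperature, then detection reagent for 15 min. Inhibition derived from luminescence versus controls.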

[1] = 25%-50%, read-out: % Inhibition 25%-50%
[2] = 75% or more, read-out: % Inhibition 75% or more
[3] = '50%-75%', read-out: % Inhibition 50%-75%

Row | Structure (SMILES) | inhibition at 5 µM [3] | other results
1 | O=C(C1CCCN(S(=O)(=O)c2c(F)c(F)c(F)c(F)c2F)C1)N1CCN(c2cc(C(F)(F)F)nc3ccccc23)CC1 (stereo not shown) [Formula 73, (1-(perfluorophenylsulfonyl)piperidin-3-yl) (4-(2-(trifluoromethyl)quinolin-4-yl)piperazin-1-yl) methanon] |  | inhibition at 5 µM [1]: 25 to 50%
2 | O=C(C1CCCN(S(=O)(=O)c2ccc(Br)cc2)C1)N1CCN(c2ccnc3cc(F)ccc23)CC1 (stereo not shown) [Formula 56, (1-(4-bromophenylsulfonyl)piperidin-3-yl) (4-(7-fluoroquinolin-4-yl)piperazin-1-yl)methanone] |  | inhibition at 5 µM [2]: ≥ 75%
3 | COC(=O)c1ccc(S(=O)(=O)N2CCCC(C(=O)N3CCN(c4ccnc5cc(Cl)ccc45)CC3)C2)cc1 (stereo not shown) [Formula 12, methyl 4-((3-(1-(7-chloroquinolin-4-yl)piperazine-1-carbonyl)piperidin-1-yl)sulfonyl)benzoate] | 50 to 75% | 
4 | O=C(C1CCCN(S(=O)(=O)c2ccc(Oc3ccccc3)cc2)C1)N1CCN(c2ccnc3cc(Cl)ccc23)CC1 (stereo not shown) [Formula 9, (4-(7-chloroquinolin-4-yl)piperazin-1-yl) (1-((4-phenoxyphenyl)sulfonyl)piperidin-3-yl) methanone] | 50 to 75% | 
5 | O=C(C1CCCN(S(=O)(=O)c2ccc(C(F)(F)F)cc2)C1)N1CCN(c2ccnc3cc(Cl)ccc23)CC1 (stereo not shown) [Formula 7, (4-(7-chloroquinolin-4-yl)piperazin-1-yl) (1-((4-(trifluoromethyl)phenyl)sulfonyl)piperidin-3-yl) methanone] |  | inhibition at 5 µM [2]: ≥ 75%
6 | Cc1cc(N2CCN(C(=O)C3CCCN(S(=O)(=O)c4ccc(N)cc4)C3)CC2)c2ccccc2n1 (stereo not shown) [Formula 96, (1-(4-aminophenylsulfonyl)piperidin-3-yl) (4-(2-methylquinolin-4-yl)piperazin-1-yl) methanone] |  | inhibition at 5 µM [1]: 25 to 50%
7 | O=C(C1CCCN(S(=O)(=O)c2ccc(-c3ccncc3)cc2)C1)N1CCN(c2ccnc3cc(F)ccc23)CC1 (stereo not shown) [Formula 106, (4-(7-fluoroquinolin-4-yl)piperazin-1-yl) (1-(4-(pyridin-4-yl)phenylsulfonyl)piperidin-3-yl) methanone] |  | inhibition at 5 µM [2]: 0%
8 | O=C(C1CCCN(S(=O)(=O)c2ccccc2)C1)N1CCN(c2cc(C(F)(F)F)nc3ccccc23)CC1 (stereo not shown) [Formula 64, (1-(phenylsulfonyl)piperidin-3-yl) (4-(2-(trifluoromethyl)quinolin-4-yl)piperazin-1-yl)methanone] |  | inhibition at 5 µM (mark in column '25% or less', read-out: % Inhibition 25% or less): ≤ 25%

Continued, in another order:

Row | inhibition at 5 µM [3] | Structure (SMILES) | other results
9 | 50 to 75% | Cc1cc(N2CCN(C(=O)C3CCCN(S(=O)(=O)c4cccc(F)c4)C3)CC2)c2ccccc2n1 (stereo not shown) [Formula 27, (1-(3-fluorophenylsulfonyl)piperidin-3-yl) (4-(2-methylquinolin-4-yl)piperazin-1-yl) methanone] | 
10 | 50 to 75% | Cc1ccc(S(=O)(=O)N2CCCC(C(=O)N3CCN(c4ccnc5cc(Cl)ccc45)CC3)C2)cc1 (stereo not shown) [Formula 2, (4-(7-chloroquinolin-4-yl)piperazin-1-yl) (1-tosylpiperidin-3-yl) methanone] | 
11 | 50 to 75% | CC(=O)Nc1ccc(S(=O)(=O)N2CCCC(C(=O)N3CCN(c4cc(C(F)(F)F)nc5ccccc45)CC3)C2)cc1 (stereo not shown) [Formula 63, N-(4-(3-(1-(2-(trifluoromethyl)quinolin-4-yl)piperazine-4-carbonyl)piperidin-1-ylsulfonyl)phenyl) acetamide] | 
12 | 50 to 75% | COc1cccc(S(=O)(=O)N2CCCC(C(=O)N3CCN(c4cc(C)nc5ccccc45)CC3)C2)c1 (stereo not shown) [Formula 39, (1-(3-methoxyphenylsulfonyl)piperidin-3-yl) (4-(2-methylquinolin-4-yl)piperazin-1-yl) methanone] | 
13 | 50 to 75% | CC(=O)Nc1ccc(S(=O)(=O)N2CCC[C@H](C(=O)N3CCN(c4cc(C)nc5ccccc45)CC3)C2)cc1 [Formula 17, (S)—N-(4-((3-(4-(2-methylquinolin-4-yl)piperazine-1-carbonyl)piperidin-1-yl)sulfonyl)phenyl) acetamide] | 
